The results in this text go back to ChEMBL document CHEMBL1201862, “PubChem BioAssay data set” (2004).

Test systems include 786-0; A498; A549; CCRF-CEM; DU-145; Hs-578T; MCF7; MDA-MB-231; MDA-N; NCI-H23; NCI-H460; RXF 393; SF-295; SK-MEL-28; SK-MEL-5; SK-OV-3; SNB-75; SW-620; TK-10; UO-31.
Common to all, as to assay: growth of human tumour cells (NCI), 48 h

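How tested: cells in 96-well plates exposed to compound for 48 hours at five concentrations. Abbreviation: GI50, concentration required for 50% inhibition of growth.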 Activity calls are given as the source filed them. Rule as the data show it: active = GI50 up to about 1.1 µM and inactive = higher. A value given as a limit tells only on which side of the number the result lay.

As for `O=[N+]([O-])C(=C(Sc1ccccc1)Sc1ccccc1)C(Cl)=C(Cl)Cl`, the GI50 in the assay on 786-0 was 0.0703 µM (active); with A498, 3.44 µM (inactive); with A549 it was 2.22 µM (inactive); in the assay with CCRF-CEM, 0.0189 µM (active); in the assay with DU-145 it was 1.11 µM (active); in the assay on Hs-578T, 3.32 µM (inactive). The GI50 is 0.21 µM (active) in the assay on MCF7; 0.188 µM (active) in the assay with MDA-MB-231; 0.23 µM (active) in the assay on MDA-N; 1.24 µM (inactive) in the assay with NCI-H23; 5.74 µM (inactive) in the assay with NCI-H460; 0.413 µM (active) in the assay on RXF 393. Further, the GI50 was 11.9 µM (inactive) in the assay on SF-295; 0.427 µM (active) in the assay on SK-MEL-28; 1.69 µM (inactive) with SK-MEL-5; 10.1 µM (inactive) with SK-OV-3; 4.54 µM (inactive) in the assay with SNB-75; < 0.0391 µM (active) in the assay with SW-620. Further, the GI50 in the assay on TK-10 was 0.0948 µM (active); with UO-31, 0.171 µM (active).

For the compound `COc1ccc(C2CC3(c4ccccc4)ON=C(c4ccccc4)N3c3ccccc3S2)cc1` (stereo not given), the GI50 with 786-0, with A498, with A549, with CCRF-CEM, in the assay on DU-145 and in the assay on Hs-578T was > 100 µM (inactive) throughout. Moreover, the GI50 with MCF7, in the assay on MDA-MB-231, with MDA-N, with NCI-H23, in the assay on NCI-H460 and in the assay with RXF 393 was > 100 µM (inactive) throughout. In addition, the GI50 in the assay on SF-295, in the assay on SK-MEL-28, with SK-MEL-5, with SK-OV-3, in the assay with SNB-75 and in the assay with SW-620 was > 100 µM (inactive) throughout. Also, the GI50 in the assay with TK-10 was > 100 µM (inactive); in the assay on UO-31, 51.2 µM (inactive).
